Assay results from ChEMBL document CHEMBL4622899, “Synthesis and anticancer activity of open-resorcinarene conjugates” (Bioorg Med Chem Lett, 2020).

Legend:
[1] = test system: U-251; test: Anticancer activity against human U251 cells assessed as cell growth inhibition measured after 48 hrs by MTT assay; assay type: functional, cell-based
[2] = test system: SK-LU-1; test: Anticancer activity against human SKLU1 cells assessed as cell growth inhibition measured after 48 hrs by MTT assay; assay type: functional, cell-based
[3] = test system: PC-3; test: Anticancer activity against human PC3 cells assessed as cell growth inhibition measured after 48 hrs by MTT assay; assay type: functional, cell-based
[4] = test system: MCF7; test: Anticancer activity against human MCF7 cells assessed as cell growth inhibition measured after 48 hrs by MTT assay; assay type: functional, cell-based
[5] = test system: K562; test: Anticancer activity against human K562 cells assessed as cell growth inhibition measured after 48 hrs by MTT assay; assay type: functional, cell-based
[6] = test system: COS-7; test: Cytotoxicity against African green monkey COS7 cells assessed as cell growth inhibition measured after 48 hrs by MTT assay; assay type: cell-based, Chlorocebus aethiops
[7] = test system: HCT-15; test: Anticancer activity against human HCT15 cells assessed as cell growth inhibition measured after 48 hrs by MTT assay; assay type: functional, cell-based
[8] = Homo sapiens, U-251, 48 h, read-out: IC50
[9] = Homo sapiens, SK-LU-1, 48 h, read-out: IC50
[10] = Homo sapiens, PC-3, 48 h, read-out: IC50
[11] = Homo sapiens, MCF7, 48 h, read-out: IC50
[12] = Homo sapiens, K562, 48 h, read-out: IC50
[13] = Chlorocebus aethiops, COS-7, 48 h, read-out: IC50
[14] = Homo sapiens, HCT-15, 48 h, read-out: IC50

Compound: O=C(COc1cc(OCC(=O)NCCO)c(C(c2ccc(C(c3cc(Cl)c(OCC(=O)NCCO)cc3OCC(=O)NCCO)c3cc(Cl)c(OCC(=O)NCCO)cc3OCC(=O)NCCO)cc2)c2cc(Cl)c(OCC(=O)NCCO)cc2OCC(=O)NCCO)cc1Cl)NCCO
- IC50 ([1]; u-251): Not Active
- IC50 ([2]; sk-lu-1): Not Active
- IC50 ([3]; pc-3): Not Active
- IC50 ([4]; mcf7): Not Active
- IC50 ([5]; k562): Not Active
- IC50 ([6]; cos-7): Not Active
- IC50 ([7]; hct-15): Not Active

Compound: COc1ccc2cc([C@H](C)C(=O)OCCNC(=O)COc3cc(OCC(=O)NCCOC(=O)[C@@H](C)c4ccc5cc(OC)ccc5c4)c(C(c4ccc(C(c5cc(Cl)c(OCC(=O)NCCOC(=O)[C@@H](C)c6ccc7cc(OC)ccc7c6)cc5OCC(=O)NCCOC(=O)[C@@H](C)c5ccc6cc(OC)ccc6c5)c5cc(Cl)c(OCC(=O)NCCOC(=O)[C@@H](C)c6ccc7cc(OC)ccc7c6)cc5OCC(=O)NCCOC(=O)[C@@H](C)c5ccc6cc(OC)ccc6c5)cc4)c4cc(Cl)c(OCC(=O)NCCOC(=O)[C@@H](C)c5ccc6cc(OC)ccc6c5)cc4OCC(=O)NCCOC(=O)[C@@H](C)c4ccc5cc(OC)ccc5c4)cc3Cl)ccc2c1
- IC50 [1, 8]: 50.3 µM
- IC50 [2, 9]: > 1000 µM
- IC50 [3, 10]: > 1000 µM
- IC50 [4, 11]: > 1000 µM
- IC50 [5, 12]: > 1000 µM
- IC50 [6, 13]: > 1000 µM
- IC50 [7, 14]: > 1000 µM

Compound: CC(C)Cc1ccc(C(C)C(=O)OCCNC(=O)COc2cc(OCC(=O)NCCOC(=O)C(C)c3ccc(CC(C)C)cc3)c(C(c3ccc(C(c4cc(Cl)c(OCC(=O)NCCOC(=O)C(C)c5ccc(CC(C)C)cc5)cc4OCC(=O)NCCOC(=O)C(C)c4ccc(CC(C)C)cc4)c4cc(Cl)c(OCC(=O)NCCOC(=O)C(C)c5ccc(CC(C)C)cc5)cc4OCC(=O)NCCOC(=O)C(C)c4ccc(CC(C)C)cc4)cc3)c3cc(Cl)c(OCC(=O)NCCOC(=O)C(C)c4ccc(CC(C)C)cc4)cc3OCC(=O)NCCOC(=O)C(C)c3ccc(CC(C)C)cc3)cc2Cl)cc1 (configuration not stated)
- IC50 [1, 8]: > 1000 µM
- IC50 [2, 9]: > 1000 µM
- IC50 [3, 10]: > 1000 µM
- IC50 [4, 11]: > 1000 µM
- IC50 [5, 12]: > 1000 µM
- IC50 [6, 13]: > 1000 µM
- IC50 [7, 14]: > 1000 µM

Compound: COc1ccc2c(c1)c(CC(=O)OCCNC(=O)COc1cc(OCC(=O)NCCOC(=O)Cc3c(C)n(C(=O)c4ccc(Cl)cc4)c4ccc(OC)cc34)c(C(c3ccc(C(c4cc(Cl)c(OCC(=O)NCCOC(=O)Cc5c(C)n(C(=O)c6ccc(Cl)cc6)c6ccc(OC)cc56)cc4OCC(=O)NCCOC(=O)Cc4c(C)n(C(=O)c5ccc(Cl)cc5)c5ccc(OC)cc45)c4cc(Cl)c(OCC(=O)NCCOC(=O)Cc5c(C)n(C(=O)c6ccc(Cl)cc6)c6ccc(OC)cc56)cc4OCC(=O)NCCOC(=O)Cc4c(C)n(C(=O)c5ccc(Cl)cc5)c5ccc(OC)cc45)cc3)c3cc(Cl)c(OCC(=O)NCCOC(=O)Cc4c(C)n(C(=O)c5ccc(Cl)cc5)c5ccc(OC)cc45)cc3OCC(=O)NCCOC(=O)Cc3c(C)n(C(=O)c4ccc(Cl)cc4)c4ccc(OC)cc34)cc1Cl)c(C)n2C(=O)c1ccc(Cl)cc1
- IC50 [1, 8]: 23.1 µM
- IC50 [2, 9]: > 1000 µM
- IC50 [3, 10]: > 1000 µM
- IC50 [4, 11]: > 1000 µM
- IC50 [5, 12]: > 1000 µM
- IC50 [6, 13]: > 1000 µM
- IC50 [7, 14]: > 1000 µM

Compound: COC(=O)COc1cc(OCC(=O)OC)c(C(c2ccc(C(c3cc(Cl)c(OCC(=O)OC)cc3OCC(=O)OC)c3cc(Cl)c(OCC(=O)OC)cc3OCC(=O)OC)cc2)c2cc(Cl)c(OCC(=O)OC)cc2OCC(=O)OC)cc1Cl
- IC50 ([1]; u-251): Not Active
- IC50 ([2]; sk-lu-1): Not Active
- IC50 ([3]; pc-3): Not Active
- IC50 ([4]; mcf7): Not Active
- IC50 ([5]; k562): Not Active
- IC50 ([6]; cos-7): Not Active
- IC50 ([7]; hct-15): Not Active

Compound: O=C(COc1cc(OCC(=O)NCCOC(=O)CCCc2ccc(N(CCCl)CCCl)cc2)c(C(c2ccc(C(c3cc(Cl)c(OCC(=O)NCCOC(=O)CCCc4ccc(N(CCCl)CCCl)cc4)cc3OCC(=O)NCCOC(=O)CCCc3ccc(N(CCCl)CCCl)cc3)c3cc(Cl)c(OCC(=O)NCCOC(=O)CCCc4ccc(N(CCCl)CCCl)cc4)cc3OCC(=O)NCCOC(=O)CCCc3ccc(N(CCCl)CCCl)cc3)cc2)c2cc(Cl)c(OCC(=O)NCCOC(=O)CCCc3ccc(N(CCCl)CCCl)cc3)cc2OCC(=O)NCCOC(=O)CCCc2ccc(N(CCCl)CCCl)cc2)cc1Cl)NCCOC(=O)CCCc1ccc(N(CCCl)CCCl)cc1
- IC50 [1, 8]: 24.3 µM
- IC50 [2, 9]: 80 µM
- IC50 [3, 10]: 34 µM
- IC50 [4, 11]: 81 µM
- IC50 [5, 12]: 51.4 µM
- IC50 [6, 13]: > 1000 µM
- IC50 [7, 14]: 201 µM

Compound: Oc1cc(O)c(C(c2ccc(C(c3cc(Cl)c(O)cc3O)c3cc(Cl)c(O)cc3O)cc2)c2cc(Cl)c(O)cc2O)cc1Cl
- IC50 ([1]; u-251): Not Active
- IC50 ([2]; sk-lu-1): Not Active
- IC50 ([3]; pc-3): Not Active
- IC50 ([4]; mcf7): Not Active
- IC50 ([5]; k562): Not Active
- IC50 ([6]; cos-7): Not Active
- IC50 ([7]; hct-15): Not Active

Compound: O=C(O)CCCc1ccc(N(CCCl)CCCl)cc1 [CHLORAMBUCIL]
- IC50 [1, 8]: 33.1 µM
- IC50 [2, 9]: 300 µM
- IC50 [3, 10]: 16.4 µM
- IC50 [4, 11]: > 100 µM
- IC50 [5, 12]: 103 µM
- IC50 [6, 13]: 43.5 µM
- IC50 [7, 14]: 3.11 µM

Compound: CC(C)Cc1ccc(C(C)C(=O)O)cc1 (configuration not stated) [IBUPROFEN]
- IC50 [1, 8]: > 1000 µM
- IC50 [2, 9]: 90.6 µM
- IC50 [3, 10]: > 1000 µM
- IC50 [4, 11]: 92.1 µM
- IC50 [5, 12]: > 1000 µM
- IC50 [6, 13]: > 1000 µM
- IC50 [7, 14]: > 1000 µM

Compound: COc1ccc2c(c1)c(CC(=O)O)c(C)n2C(=O)c1ccc(Cl)cc1 [INDOMETHACIN]
- IC50 [1, 8]: 20.4 µM
- IC50 [2, 9]: > 1000 µM
- IC50 [3, 10]: > 1000 µM
- IC50 [4, 11]: > 1000 µM
- IC50 [5, 12]: 190 µM
- IC50 [6, 13]: > 1000 µM
- IC50 [7, 14]: > 1000 µM

Compound: COc1ccc2cc([C@H](C)C(=O)O)ccc2c1 [NAPROXEN]
- IC50 [1, 8]: > 1000 µM
- IC50 [2, 9]: > 1000 µM
- IC50 [3, 10]: > 1000 µM
- IC50 [4, 11]: > 1000 µM
- IC50 [5, 12]: 181 µM
- IC50 [6, 13]: > 1000 µM
- IC50 [7, 14]: > 1000 µM
